From US6676954B2, “Controlled release compositions” (Rohm and Haas Company, priority 2000, dated 2004)
Marks after values point to notes of the source that are not given here.

Columns and labels:
[1] = Relative release test: 3-isothiazolone released from the solid composition into water with 0.3% sodium diethylhexylsulfosuccinate (HPLC); format: physicochemical; settings: no paint
Description: The amount of 3-isothiazolone compound released from each controlled release composition was determined according to the following general procedure. A weighed amount of controlled release composition (0.014 g, prepared as described in Example 1) was placed in a 250 mL sample jar. To the jar was then added 200 mL of water containing 0.3% of sodium diethylhexylsulfosuccinate. The solution was then gently stirred to ensure no foam was formed. Aliquots (0.5 mL) were taken at 5 and 24 hours and transferred to a microcentrifuge tube. Each aliquot was then centrifuged at 14,000 rpm for 3 minutes. The supernatant was then removed and analyzed by HPLC (high pressure liquid chromatography) for the amount of the 3-isothiazolone compound. The microcentrifuge tube was then washed with 0.5 mL of water containing 0.3% of sodium diethylhexylsulfosuccinate and the wash liquid added to the sample jar. This ensured that none of the particles removed during sampling was lost and that the volume in the jar remained constant.
The solid compositions were then evaluated using (1) the salt water leaching test as described in Example 3 and the relative release test (5-day) described in Example 2. […]

[2] = Salt water (synthetic-seawater) leaching test: 14C-labelled ITA remaining in the marine paint film; format: physicochemical
Description: The efficacy of the 3-isothiazolone/carbon-based adsorbent compositions of the present invention in a paint film was determined by a salt water (synthetic-seawater) leaching evaluation. An appropriate amount of 4,5-dichloro-2-n-octyl-3-isothiazolone (ITA), together with carbon-based adsorbent (C-1, C-2, C-3):
was added to 10 g of a marine antifouling paint formulation (2 different paint types, P-1 and P-2, see below) in a milling jar to provide a final 3-isothiazolone concentration of 2% based on total combined weight of the 3-isothiazolone/carbon-based adsorbent/paint formulation mixture. Paint films were then drawn on silanized microslides to a thickness of 0.076 mm (0.003 inch) for the rosin-based paint formulation (P-1) and to a thickness of 0.178 mm (0.007 inch) for the polishing type marine antifouling paint (P-2). The paint films were dried for 2 days and then the microslides were placed in a synthetic-seawater fish tank for 1 month. The synthetic-seawater was periodically circulated through a filter cartridge containing activated carbon and Celex™ 20 chelating agent (to remove 3-isothiazolone and copper ions). At various times the paint slides were removed and analyzed. The amount of 4,5-dichloro-2-n-octyl-3-isothiazolone remaining in the paint film after exposure to synthetic-seawater was determined by radioactive labeling (^14C-labeled 4,5-dichloro-2-n-octyl-3-isothiazolone).
The salt water leaching test and radioactive labeling measurements were conducted as follows: a small amount of ^14C-4,5-dichloro-2-n-octyl-3-isothiazolone was incorporated with ^12C-4,5-dichloro-2-n-octyl-3-isothiazolone into paint and the radioactivity of trace ^14C-molecules was measured by a Phosphorimager SI spectrometer (manufactured by Molecular Dynamics Co.); a ratio of 4×10^−5 for ^14C-4,5-dichloro-2-n-octyl-3-isothiazolone to every gram of ^12C-4,5-dichloro-2-n-octyl-3-isothiazolone was used.
The prepared slides were placed in synthetic-seawater prepared as follows: the following ingredients (20 liters deionized water, 1350 g NaCl, 225 g MgCl2.6H2O, and 321.6 g Na2B4O7.10H2O in 6 liters deionized water) were combined and adjusted to a pH of 8.2 with 1.0 M HCl solution, after which the total volume was made up to 30 liters with additional deionized water.
The solid compositions were then evaluated using (1) the salt water leaching test as described in Example 3 and the relative release test (5-day) described in Example 2. A summary of the performance of the three inorganic carriers (diatomaceous earth, aluminosilicate and magnesium silicate) relative to the carbon-based adsorbent (activated carbon) composition of the present invention is presented in Table 4.

[3] = paint P-1 (rosin-based), 2% ITA, synthetic seawater
[4] = paint P-2 (polishing type), 2% ITA, synthetic seawater

% 4,5-dichloro-2-n-octyl-3-isothiazolone retained (5-day surfactant solution) ([1]; 5-day release test, retention as stated in the text): 0%
5 Day % Released ([1]; carrier loaded with 30% ITA, 5-day relative release test in surfactant solution): 100%
% ITA Retained in Paint Film, 0 Days [2, 3]: 100%
% ITA Retained in Paint Film, 7 Days [2, 3]: 82%
% ITA Retained in Paint Film, 14 Days (interpolated) ([2]; paint P-1 (rosin-based), 2% ITA, synthetic seawater, 14 days, values in are interpolated): (78) %
% ITA Retained in Paint Film, 30 Days [2, 3]: 70%
Salt Water Leaching Test (28 Days) (% Retained in Paint Film) ([2]; paint P-1, carrier loaded with 30% ITA, 28 days in synthetic seawater): 64%
% ITA Retained in Paint Film, 0 Days [2, 4]: 100%
% ITA Retained in Paint Film, 7 Days [2, 4]: 31-44* %
% ITA Retained in Paint Film, 21 Days ([2]; paint P-2 (polishing type), 2% ITA, synthetic seawater, 21 days): 18%
% ITA Retained in Paint Film, 30 Days [2, 4]: 13%
SMILES: CCCCCCCCn1sc(Cl)c(Cl)c1=O [None, 4,5-dichloro-2-n-octyl-3-isothiazolone]
